Laboratory results taken from patent US11879137B2, “Treatment of type 1 diabetes and autoimmune diseases or disorders” (THE CHILDREN'S MEDICAL CENTER CORPORATION, priority 2017, dated 2024).

System: KL cells from bone marrow of NOD mice
Assay: Flow cytometry of murine KL cells modulated with PGE2 or dmPGE2
Type: cell-based
Details: for CXCR4 among chemokine receptors on treated KL cells: chemokine receptor profile; for expression of PD-L2, PD-1, CD80 and CD40: vs unmodulated KL cells
Description: FIGS. 19A-19G show the profile of murine KL cells. (FIG. 19A-19B) Representative flow cytometric analysis and quantitative bar graph of PD-L1 expression on Lineage^−c-kit^+ (KL) cells from NOD mice pre- and post-pharmacologic modulation with PGE2. (FIG. 19C-19D) Representative flow cytometric analysis and quantitative bar graph of CXCR4 expression on KL cells from NOD mice pre- and post-pharmacologic modulation with PGE2. (FIG. 19E) Quantitative bar graph of flow cytometric expression of positive and negative costimulatory molecules (CD40, CD80, CD86, PD-L1, PD-L2 and PD-1) and of select pro-inflammatory and anti-inflammatory cytokines (IFN-γ, IL-10, IL-4) in PGE2-modulated KL cells from NOD mice as compared to those modulated with a selected PGE2 clinical grade agonist (dmPGE2) and compared to unmodulated KL cells isolated from the bone marrow of normoglycemic NOD mice. (FIG. 19F) Flow cytometric expression of selected chemokine receptors (CXCR4, CCR2, CCR4, CCR5, CCR6, CCR7, CCR8, and CXCR3) in PGE2-modulated KL cells from NOD mice as compared to those modulated with a selected PGE2 clinical grade agonist (dmPGE2) and to unmodulated KL cells isolated from the bone marrow of normoglycemic NOD mice. (FIG. 19G) Quantitative bar graph of flow cytometric expression of chemokines receptors (CCR2, CCR4, CCR5, CCR6, CCR7, CCR8, CXCR3 and CXCR4) in PGE2-modulated KL cells from NOD mice as compared to those modulated with a selected PGE2 clinical grade agonist (dmPGE2) and compared to unmodulated KL cells isolated from the bone marrow of normoglycemic NOD mice. […] Abbreviations: KL, Lineage^−c-kit^+ cells.
Murine regulatory KL cell modulation. Murine bone marrow KL (c-Kit+Lineage-) cells were isolated using magnetic beads and MACS® separation columns (Miltenyi Biotec, San Diego, CA) and ˜2×10^5 cells were plated in a U-bottomed 96-well plate with 200 μl of stem cell medium, Stemspan-SFEMII (STEMCELL Technologies, Cambridge, MA) and PGE2 (PromoKine, PromoCell Gmbh, Germany) was added at day 0 and day 1, at a concentration of 10 μM.
Flow cytometric analysis and intracellular cytokine staining. Flow cytometry was performed to analyze surface expression markers of PGE2-modulated HSPCs and dmPGE2 (16, 16-dimethyl PGE2)-modulated HSPCs. Anti-mouse PD-L1, PD-L2, PD-1, CD40, CD80, CD86, CD4, CD8, Ly-6G (Gr-1), B220, CD3, CXCR4, CCR2, CCR4, CCR5, CCR6, CCR7, CCR8, CXCR3, IL-4, IL-10 and IFN-γ were purchased from BD Biosciences, eBioscience (San Diego, CA) and BioLegend. The following antibodies corresponded to isotype controls for the murine antibodies above: PE mouse IgG1, κ isotype ctrl, Armenian hamster IgG; APC mouse IgG2b, κ isotype ctrl, Armenian hamster IgG. Cells were subjected to FACS analysis and were run on a FACSCalibur™ (Becton Dickinson). Data were analyzed using FlowJo software version 8.7.3 (Treestar).
Murine PGE2-modulated HSPCs abrogate the autoimmune response in vitro. The feasibility of pharmacological modulation of PD-L1 with PGE2 was next explored in murine HSPCs. […] Moreover, the chemokine receptor profile of PGE2-modulated KL cells as compared to dmPGE2-modulated KL cells and unmodulated KL cells was explored in order to assess which chemokines are potentially involved in the homing of PGE2-modulated and dmPGE2-modulated KL cells. […] The immunoregulatory properties of PGE2-modulated KL cells was next explored in an autoimmune setting in vitro. PGE2-modulated KL cells generated from normoglycemic NOD mice were co-cultured at ratios of 1:1, 1:5 and 1:10 (KL cells to T cells) with CD11c+ DCs and BDC2.5 transgenic CD4+CD25− T cells in the presence of BDC2.5 peptide. […] Indeed, PGE2-modulated KL cells exerted a robust immunoregulatory effect even if added at low ratios (1:5 PGE2-treated KL cell to T cells). A less pronounced effect was observed when unmodulated KL were added to the assays. […] PGE2-modulated HSPCs are thus endowed with immunoregulatory properties and are capable of abrogating the autoimmune response in vitro. […]

CCCCC(C)(C)[C@H](O)/C=C/[C@H]1[C@H](O)CC(=O)[C@@H]1C/C=C\CCCC(=O)O [16,16-dimethyl PGE2]
CXCR4 among chemokine receptors on treated KL cells: most expressed
expression of PD-L2, PD-1, CD80 and CD40: similarly upregulated

CCCCC[C@H](O)/C=C/[C@H]1[C@H](O)CC(=O)[C@@H]1C/C=C\CCCC(=O)O [PGE2, prostaglandin E2]
CXCR4 expression on KL cells (FACS): markedly upregulated
PD-L1 expression on KL cells (FACS, 10 μM day 0 and day 1): upregulation
CXCR4 among chemokine receptors on treated KL cells: most expressed
expression of PD-L2, PD-1, CD80 and CD40: upregulation
